Results published in article PMC7044277 (Nature Communications, 2020).
Where “and” joins values, the source holds several entries; their conditions need not be identical. Equal entries are not always repeated.

Experiments:
[1] = biological target: T1, DRD4 (D4.4 variant) wild-type (Homo sapiens, UniProt P21917); assay: Radioligand competition binding, [3H]-N-methylspiperone; conditions: DRD4; [3H]-methylspiperone (0.8-1.0 nM); read-out: Ki
T1 sequence (P21917 1-419): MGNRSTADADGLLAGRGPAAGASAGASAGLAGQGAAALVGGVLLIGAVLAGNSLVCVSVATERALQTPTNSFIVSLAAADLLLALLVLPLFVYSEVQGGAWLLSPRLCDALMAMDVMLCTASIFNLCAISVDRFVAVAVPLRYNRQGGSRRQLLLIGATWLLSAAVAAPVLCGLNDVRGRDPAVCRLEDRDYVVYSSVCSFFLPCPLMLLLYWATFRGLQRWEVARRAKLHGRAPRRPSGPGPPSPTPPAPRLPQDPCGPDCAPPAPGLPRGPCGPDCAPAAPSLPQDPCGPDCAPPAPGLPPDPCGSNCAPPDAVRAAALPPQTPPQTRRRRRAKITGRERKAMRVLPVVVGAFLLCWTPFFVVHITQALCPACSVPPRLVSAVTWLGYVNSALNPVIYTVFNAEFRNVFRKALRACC

[2] = system: serotonin receptor (subtype not given; reference agonist serotonin); assay: β-arrestin2 recruitment (Tango), agonist activity, source data Fig_S10l; assay type: cell-based, human; conditions: drug alone
DRD3 F1063.28A = DRD3 F1063.28A (Homo sapiens, UniProt P35462, F106A); assay: biochemical; assay type: binding
5HT1F = biological target: T2, 5HT1F (Homo sapiens, UniProt P30939); assay: β-arrestin2 recruitment (Tango); assay type: cell-based; conditions: for β-arrestin2 recruitment response, agonist mode (single replicate values): Fig_S10j; for Fig_S10j dose-response, drug alone (agonist mode), β-arrestin2 recruitment: single replicate values
T2 construct: expressed in transfected cells; host or cells: HTLA cells expressing TEV-fused β-arrestin2
T2 sequence (P30939 1-366): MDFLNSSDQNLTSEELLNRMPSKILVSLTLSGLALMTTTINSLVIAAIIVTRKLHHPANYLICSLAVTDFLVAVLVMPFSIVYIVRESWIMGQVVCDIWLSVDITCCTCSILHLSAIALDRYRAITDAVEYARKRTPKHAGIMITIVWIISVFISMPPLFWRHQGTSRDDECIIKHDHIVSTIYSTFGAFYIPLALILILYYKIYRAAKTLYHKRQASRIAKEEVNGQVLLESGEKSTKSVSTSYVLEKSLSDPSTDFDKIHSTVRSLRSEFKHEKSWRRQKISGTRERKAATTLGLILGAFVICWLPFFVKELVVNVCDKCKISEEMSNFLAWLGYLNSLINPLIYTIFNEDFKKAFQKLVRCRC

DRD2 F1103.28A [3] = biological target: T3, DRD2 F1103.28A (Homo sapiens, UniProt P14416, F110A); assay: β-arrestin2 recruitment (Tango), mutant; assay type: cell-based; design: expressed in transfected cells; host or cells: HEK293T (ATCC CRL-11268)
DRD2 F1103.28A [4] = biological target: T3, DRD2 F1103.28A; assay: Gαi/o-mediated cAMP inhibition (GloSensor), mutant; assay type: cell-based; design: expressed in transfected cells; host or cells: HEK293T (ATCC CRL-11268)
DRD4 (D4.4 variant) = biological target: T4, DRD4 (D4.4 variant) (Homo sapiens, UniProt P21917); assay: β-arrestin2 recruitment (Tango); assay type: cell-based
T4 sequence (P21917 1-419): T1 sequence (P21917 1-419)

T3 sequence (P14416 whole entry F110A): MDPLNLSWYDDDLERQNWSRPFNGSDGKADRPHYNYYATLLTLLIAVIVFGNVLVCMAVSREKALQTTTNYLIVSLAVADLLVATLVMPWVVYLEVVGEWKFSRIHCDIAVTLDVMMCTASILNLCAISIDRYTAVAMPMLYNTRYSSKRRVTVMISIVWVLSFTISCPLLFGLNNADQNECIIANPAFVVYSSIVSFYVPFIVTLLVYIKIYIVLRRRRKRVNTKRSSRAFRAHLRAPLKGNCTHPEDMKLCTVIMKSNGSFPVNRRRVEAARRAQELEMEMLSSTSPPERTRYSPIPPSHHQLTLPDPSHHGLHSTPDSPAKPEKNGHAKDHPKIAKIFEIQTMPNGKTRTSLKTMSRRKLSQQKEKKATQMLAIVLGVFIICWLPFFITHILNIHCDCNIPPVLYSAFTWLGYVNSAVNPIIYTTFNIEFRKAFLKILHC
Sequence of DRD3 F1063.28A (P35462 whole entry F106A): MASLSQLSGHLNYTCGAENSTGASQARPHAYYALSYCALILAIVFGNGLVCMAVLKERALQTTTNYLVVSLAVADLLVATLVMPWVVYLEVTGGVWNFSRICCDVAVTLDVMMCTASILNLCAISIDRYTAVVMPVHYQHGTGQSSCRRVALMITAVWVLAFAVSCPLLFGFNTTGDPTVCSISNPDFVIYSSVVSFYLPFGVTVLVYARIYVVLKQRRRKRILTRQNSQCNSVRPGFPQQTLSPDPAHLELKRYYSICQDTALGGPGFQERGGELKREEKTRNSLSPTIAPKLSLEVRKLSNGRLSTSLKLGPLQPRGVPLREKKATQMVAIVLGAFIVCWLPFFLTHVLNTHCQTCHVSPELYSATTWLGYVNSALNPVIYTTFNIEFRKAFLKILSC

Which results are given for `CCOc1cccc2cc([C@H](C)NCC3(O)CCCCC3)oc12` [O4SE6]?
Ki [1]: > 10 µM; response, Fig_S10l, replicate values ([2]; Log[Drug] -6.52): -2.091; response, Fig_S10l, replicate values ([2]; Log[Drug] -7): -4.051 and -1.4228 and 2.693 and -6.163 and -1.5474 and -1.737 and -7.607 and -30.8777 and -6.976; response, Fig_S10l, replicate values ([2]; Log[Drug] -7.52): -6.555 and -13.4609 and -0.98 and 4.322 and -3.875 and -2.693 and -7.055 and 7.925 and -34.7877; response, Fig_S10l, replicate values ([2]; Log[Drug] -8): -3.792 and 35.132 and 2.507 and -11.1986 and -6.626 and 6.545 and -5.91 and -30.1494 and -3.473; response, Fig_S10l, replicate values ([2]; Log[Drug] -8.52): 1.522 and -11.8615 and -2.437 and 12.7169 and -12.0506 and -8.665 and 20.957 and -2.778 and -10.1926; response, Fig_S10l, replicate values ([2]; Log[Drug] -9): -4.295 and 4.13 and 0.2396 and -2.794 and 1.184 and 0.6235 and -1.336 and -7.8842 and -10.8253; response, Fig_S10l, replicate values ([2]; Log[Drug] -9.52): 25.6854 and -2.744 and -6.32 and -4.5985 and -1.891 and 4.517 and 39.1804 and -4.421 and -3.844; response, Fig_S10l, replicate values ([2]; Log[Drug] -10): -8.462 and 9.478 and -1.609 and 0.3049 and 15.9901 and -6.166 and 19.6932 and 12.6773 and 5.951; response, Fig_S10l, replicate values ([2]; Log[Drug] -10.52): 6.737 and -12.3624 and -4.665 and -4.851 and -5.052 and -4.841 and 9.484 and 11.2587 and 10.4562; response, Fig_S10l, replicate values ([2]; Log[Drug] -11): -35.1417 and -18.9513 and -15.3749 and 4.5184 and -0.5498 and 5.57 and -9.125 and -8.22 and 4.834; response, Fig_S10l, replicate values ([2]; Log[Drug] -11.52): -5.783 and 6.132 and 4.745 and -13.0691 and -5.46 and 4.358 and -4.571 and 10.1317 and -13.0711; response, Fig_S10l, replicate values ([2]; Log[Drug] -12): 6.173 and -15.2273 and 9.6789 and 4.873 and 7.863 and 1.749 and -9.697 and 0.6459 and 4.404; Ki (DRD3 F1063.28A): 1.91 µM; β-arrestin2 recruitment response, agonist mode (single replicate values) (5HT1F; Log[Drug] -8): 1.302 and -0.3873 and 2.074 and -2.101 and -1.406 and -2.308 and -1.812 and -0.8607 and -0.04463; β-arrestin2 recruitment response, agonist mode (single replicate values) (5HT1F; Log[Drug] -8.52): 0.304 and 0.5074 and 1.87 and 1.981 and -1.055 and -1.27 and -1.358 and -1.238 and -0.4845; β-arrestin2 recruitment response, agonist mode (single replicate values) (5HT1F; Log[Drug] -9): 0.9904 and 0.706 and 0.885 and 0.6945 and 9.325 and -1.862 and -2.066 and -0.6583 and 0.2247; β-arrestin2 recruitment response, agonist mode (single replicate values) (5HT1F; Log[Drug] -9.52): 3.047 and -0.8801 and 2.567 and 4.29 and 2.342 and -1.433 and -1.621 and -2.0051 and -0.408; β-arrestin2 recruitment response, agonist mode (single replicate values) (5HT1F; Log[Drug] -10): 4.819 and -0.0956 and 1.856 and -1.573 and -2.24 and -0.1941 and -0.1562 and -0.3459 and -1.4329; β-arrestin2 recruitment response, agonist mode (single replicate values) (5HT1F; Log[Drug] -10.52): 0.4927 and 0.6104 and 0.5001 and 1.318 and -2.635 and -1.961 and -1.313 and -0.102 and -0.1036; β-arrestin2 recruitment response, agonist mode (single replicate values) (5HT1F; Log[Drug] -11): 1.294 and -0.1888 and 1.488 and -1.416 and -3.18 and -0.3234 and -0.2837 and 1.1189 and -0.7348; β-arrestin2 recruitment response, agonist mode (single replicate values) (5HT1F; Log[Drug] -11.52): 2.172 and 1.385 and 0.6864 and -1.406 and -1.13 and -0.05788 and -1.691 and -2.064 and -2.201; β-arrestin2 recruitment response, agonist mode (single replicate values) (5HT1F; Log[Drug] -12): 0.3211 and 1.218 and -0.05883 and -2.747 and -2.758 and -0.03745 and -0.9037 and -1.7453 and 2.037; Fig_S10j dose-response, drug alone (agonist mode), β-arrestin2 recruitment (5HT1F; Log[Drug] -5): 0.3849 and -0.983 and 0.7697 and -1.569 and -1.842 and 2.318 and -0.9197 and -0.3475 and -1.47; Fig_S10j dose-response, drug alone (agonist mode), β-arrestin2 recruitment (5HT1F; Log[Drug] -5.52): 7.151 and 5.788 and -0.505 and -0.4698 and 0.6264 and -0.6469 and -1.685 and -0.2789 and -1.819; Fig_S10j dose-response, drug alone (agonist mode), β-arrestin2 recruitment (5HT1F; Log[Drug] -6): 2.525 and 0.2795 and 1.682 and -0.463 and -1.025 and 2.25 and -2.251 and -0.6646 and -0.8511; Fig_S10j dose-response, drug alone (agonist mode), β-arrestin2 recruitment (5HT1F; Log[Drug] -6.52): 3.045 and 0.7943 and 0.9757 and -1.712 and -2.09 and -1.297 and -2.011 and -0.3459 and -1.811; Fig_S10j dose-response, drug alone (agonist mode), β-arrestin2 recruitment (5HT1F; Log[Drug] -7): 1.287 and -0.1961 and 3.15 and 1.852 and -1.692 and -1.42 and -0.2821 and 1.046 and -0.8687; Fig_S10j dose-response, drug alone (agonist mode), β-arrestin2 recruitment (5HT1F; Log[Drug] -7.52): -0.2819 and 1.395 and 1.76 and -1.559 and -1.409 and -1.542 and -1.242 and 0.6631 and 0.4096; EC50 (DRD2 F1103.28A [3]): > 10 µM; EC50 (DRD2 F1103.28A [4]): > 10 µM; EC50 (DRD4 (D4.4 variant); DRD4, Tango, read-out: EC50 ± SEM): > 10 µM; Fig_S10c concentration-response source data, compound alone (replicates) (DRD4 (D4.4 variant); Log[Drug] -5, agonist mode): 6.217 and 2.763 and 2.001 and 1.287 and 1.775 and 4.058 and 4.003 and 0.06427 and 0.2106
